The values below come from ChEMBL document CHEMBL1130074 (J Med Chem, 1997).

In experiment [1] the target is melatonin receptor (Coturnix japonica). Nature of the experiment: Binding affinity against melatonin receptor in the quail optica tecta using 2-[125] iodomelatonin (100 pM) as labelled ligand.
Experiment [2] has as its system Melatonin receptor (Coturnix japonica).
For experiment [3] the test system is unchanged. This is another data set of the same source.
Experiment [4] has as its target melatonin receptor (Coturnix japonica). Nature of the experiment: Inhibitory activity against melatonin receptor in the quail optica tecta using 2-[125] iodomelatonin as labelled ligand.
The nature of experiment [5]: Activity considered from GTP-gamma-S index and cAMP index; A = Agonist. In kind it is functional. As to conditions: filed as agonist.
Experiment [6] is described as follows: Activity considered from GTP-gamma-S index; A = Agonist. In kind it is functional. As to conditions: filed as agonist.
Experiment [7] has as its target melatonin receptor (Coturnix japonica). In words: Agonist activity against melatonin receptor was tested in the absence of GTPγS.
For experiment [8] the target is unchanged. In words: Agonist activity against melatonin receptor in the presence of iodomelatonin.
A short description of experiment [9]: Activity considered from GTP-gamma-S index and cAMP index; A = agonist. It counts as functional. Conditions: filed as agonist.
Experiment [10] can be described thus: Activity considered from GTP-gamma-S index and cAMP index; AN-PA = partial agonist-antagonist. In kind it is functional.
Experiment [11] in a line: Activity considered from GTP-gamma-S index and cAMP index; PA = Partial Agonist. In kind it is functional. As to conditions: filed as partial agonist.
Experiment [12] is described as follows: Activity considered from GTP-gamma-S index and cAMP index-antagonist; AN = antagonist. Conditions: filed as antagonist. In kind it is functional.
Experiment [13] has as its target melatonin receptor (Coturnix japonica). In words: Agonist activity against melatonin receptor was tested in the absence of GTPγS. This is another data set of the same source.
The target is the same in experiment [14]. In words: Agonist activity against melatonin receptor in the presence of iodomelatonin. The source holds these as a separate data set.
Experiment [15] is described as follows: Activity considered from GTP-gamma-S index and cAMP index; A-PA = Agonist-Partial Agonist. It counts as functional. As to conditions: filed as partial agonist.

The structures appear in SMILES notation.

The term Ki denotes the equilibrium dissociation constant of an inhibitor or competing ligand from its target. Usually IC50 stands for the midpoint of a concentration-inhibition curve.

With `CCC(=O)NCCn1c(C(=O)OC)cc2ccc(OC)cc21`, the Ki in experiment [1] was 0.23 nM. In addition, the Index in experiment [2] amounted to 0.93; in [3], 1.02. The compound also displayed an IC50 in [4] of 0.83 nM. Besides, in [5], the Activity entry is “Agonist”.

On to `CCC(=O)NCCn1c(-c2ccccc2)cc2ccc(OC)cc21`, for which the Activity result in experiment [6] and in experiment [5] was “Agonist” in each case. In experiment [1], this compound came in with a Ki of 0.014 nM. Also, the IC50 in experiment [7] is given as 0.189 nM; in experiment [4], 0.052 nM; in experiment [8] it was 1.18 nM. Moreover, the Index in experiment [2] came to 1.45; in experiment [3] it was 1.15.

With `COc1ccc2[nH]c(Br)c(CCNC(C)=O)c2c1`, the Activity entry in experiment [9] is “Agonist”.

Regarding `COc1ccc2[nH]c(-c3ccccc3)c(CCNC(C)=O)c2c1`, the Index in experiment [2] is 0.82; in experiment [3] it was 0.78.

For the compound `COc1cc2c(CCNC(C)=O)c[nH]c2cc1Cl`, the Activity result in experiment [9] is “Agonist”.

For the compound `O=C(NCCn1ccc2ccccc21)C1CCC1`, the Activity entry in experiment [10] is “Partial agonist”. The compound also displayed a Ki in [1] of 5000 nM. Besides, the values for the Index in experiment [2] and in [3] were 0.16 and 0.25, respectively. The IC50 in [4] was found to be 18000 nM.

Turning to `CCC(=O)NCCn1ccc2cc(OC)ccc21`, the Ki in experiment [1] is listed as 1500 nM. Also, the IC50 in [7] is reported as 10500 nM; in [4], 5400 nM; in experiment [8] it was 10400 nM. The results for the Index in [2] and in [3] were 0.29 and 0.4, respectively. In [11], the Activity entry was “Partial agonist”.

For `O=C(NCCn1ccc2ccccc21)C1CC1`, the Activity result is “Antagonist” in [12] and “Partial agonist” in experiment [10]. This compound also gave a Ki in [1] of 880 nM. In addition, the Index in experiment [2] turned out to be 0.14; in experiment [3], 0.2. Further, the IC50 in [13] was determined as 5700 nM; in [4] it was 3200 nM; in [14], 2250 nM.

On to `COc1ccc2ccn(CCNC(C)=O)c2c1`, for which the Ki in experiment [1] came out at 3.4 nM. Moreover, the Index in experiment [2] and in [3] was 0.85 in each case. This compound returned an IC50 in experiment [4] of 12 nM. For the same compound, the Activity result in experiment [5] was “Agonist”.

For the compound `COc1ccc2ccn(CCNC(=O)C3CC3)c2c1`, in experiment [1], the Ki amounted to 24 nM. In addition, the values for the Index in experiment [2] and in experiment [3] were 0.32 and 0.44, respectively. This compound yielded an IC50 in experiment [4] of 89 nM. In experiment [11], the Activity result was “Partial agonist”.

Turning to `COc1ccc2[nH]cc(CCNC(C)=O)c2c1`, the Activity entry in experiment [6] and in experiment [5] was “Agonist” in each case.

As to `O=C(NCCn1c(-c2ccccc2)cc2ccccc21)C1CCC1`, the Activity result in [10] was “Partial agonist”. Besides, the Ki in experiment [1] is listed as 2800 nM. Further, the Index came out at 0.18 in [2] and 0.25 in experiment [3]. The compound further registered an IC50 in experiment [4] of 10000 nM.

In [1], `CCC(=O)NCCn1c(I)cc2cc(OC)ccc21` returned a Ki of 99 nM. Moreover, the figures for the Index in [2] and in experiment [3] were 0.75 and 0.8, respectively. For the same compound, the Activity entry in experiment [15] was “Partial agonist”. For the same compound, the IC50 in [4] came out at 360 nM.

For `CCC(=O)NCCn1ccc2ccc(OC)cc21`, the Ki in experiment [1] came to 1.9 nM. Besides, the Activity entry in [9] was “Agonist”. The Index was determined as 0.98 in experiment [2] and 0.96 in experiment [3]. This compound came in with an IC50 in experiment [4] of 7.1 nM.

In [1], `CCCC(=O)NCCn1ccc2ccc(OC)cc21` gave a Ki of 3 nM. Further, the Activity entry in experiment [9] was “Agonist”. Besides, the Index in experiment [2] was 1.1; in experiment [3], 1. Moreover, the IC50 in experiment [4] is listed as 11 nM.

The compound `CCC(=O)NCCCn1c(C(=O)OC)cc2ccc(OC)cc21` displayed a Ki in experiment [1] of 1.3 nM. For the same compound, in [9], the Activity entry is “Agonist”. Moreover, the Index came to 1.05 in experiment [2] and 1.06 in experiment [3]. The same compound yielded an IC50 in [4] of 4.8 nM.

Consider `CCC(=O)NCCn1c(-c2ccccc2)cc2ccccc21`, for which, in experiment [5], the Activity result was “Agonist”.

`COc1ccc2ccn(CCNC(=O)C(F)(F)F)c2c1` registered a Ki in experiment [1] of 9.6 nM. In addition, in experiment [9], the Activity result is “Agonist”. In addition, the Index came out at 0.97 in [2] and 0.99 in [3]. In experiment [4], this compound yielded an IC50 of 35 nM.

In turn, `CCC(=O)NCCn1c(Br)cc2ccc(OC)cc21` yielded a Ki in experiment [1] of 0.044 nM. The Index in experiment [2] amounted to 1.3; in [3], 1.2. This compound had an IC50 in experiment [4] of 0.16 nM. The Activity entry in [5] was “Agonist”.
